According to ChEMBL document CHEMBL1128009, “Stereoselectivity of the positive inotropic effects of newer diazinone-cardiotonics” (Bioorg Med Chem Lett, 1994):

Columns and labels:
[1] = Calcium sensitizing activity; assay type: functional
[2] = biological target: Phosphodiesterase 3 (Homo sapiens, UniProt Q14432+Q13370); assay: Inhibition of phosphodiesterase 3; assay type: protein assay
[3] = Calcium sensitizing activity (Active); assay type: functional
[4] = Calcium sensitizing activity (No Effect); assay type: functional

Row | IC50 [2] | SMILES | EC50 [1] | EC50 [3] | EC50 [4]
1 | – | COc1ccc(C(=O)N2CCCc3cc(C4=NNC(=O)SC4C)ccc32)cc1OC (single isomer, unassigned; (+)) | 1.7 µM | – | –
2 | 1.6 µM | CC1CC(=O)NN=C1c1ccc2[nH]c(-c3cc[nH]n3)nc2c1 (single isomer, unassigned; (+)) [MERIBENDAN] | 470 µM | – | –
3 | – | COc1ccc(-c2nc3cc(C4=NNC(=O)CC4C)ccc3[nH]2)cc1 (single isomer, unassigned; (+)) [PIMOBENDAN] | 152 µM | – | –
4 | – | COc1ccc(C(=O)N2CCCc3cc(C4=NNC(=O)SC4C)ccc32)cc1OC (single isomer, unassigned; (-)) | > 100 µM | – | –
5 | 0.04 µM | CC1CC(=O)NN=C1c1ccc2[nH]c(-c3cc[nH]n3)nc2c1 (single isomer, unassigned; (-)) [MERIBENDAN] | 190 µM | – | –
6 | – | COc1ccc(-c2nc3cc(C4=NNC(=O)CC4C)ccc3[nH]2)cc1 (stereo in doubt) [PIMOBENDAN] | 100 µM | – | –
7 | 14.8 µM | CC1CC(=O)NN=C1c1cc2ccc(OCCN3CCCCC3)cc2s1 (stereo in doubt; (+)) | – | Active | –
8 | 0.08 µM | CC1CC(=O)NN=C1c1cc2ccc(OCCN3CCCCC3)cc2s1 (stereo in doubt; (-)) | – | – | Not Active
9 | 0.008 µM | C[C@@H]1CC(=O)NN=C1c1ccc(NN=C(C#N)C#N)cc1 [LEVOSIMENDAN] | > 100 µM | – | –
10 | 1.5 µM | CC1CC(=O)NN=C1c1ccc(NN=C(C#N)C#N)cc1 (stereo unspecified) [SIMENDAN] | > 100 µM | – | –
